Measurements as given in US20250305953A1, “LIGHT-EMITTING RADICAL CATION PROBE IN SITU GENERATED BY ACID INDUCTION, AND PREPARATION THEREFOR AND APPLICATION THEREOF” (SOUTH CHINA UNIVERSITY OF TECHNOLOGY, priority 2022, published 2025).

How the values were obtained:
[1] = H&E staining and hepatorenal index analysis; type: in vivo, Balb/c nude mice
Description: 2 hours after gavage, blood (approximately 500 μL) was collected through the ocular fundus venous plexus and stored in an icebox 20 minutes before centrifugation at 3,500 r.p.m. to prevent clotting. Roche Cobas E602 electrochemical light-emitting immunoassay analyzer was used to test and analyze total protein (TP), albumin (ALB), alanine aminotransferase (ALT), aspartate aminotransferase (AST), creatinine (CREA), carbon dioxide (CO2), uric acid (UA), urea (UREA) in serum samples (200 μL).
All tissues were fixed with 4% PFA, dehydrated with an ethanol solution, embedded with paraffin, and cut into […] coronal and low-temperature sections for hematoxylin and eosin (H&E) staining. Paraffin was removed by xylene washing. Then, the sections were incubated with hematoxylin and eosin for 4 min and washed with distilled water. Stained sections were examined by using the Nikon ECLIPSE 80i microscope.

[2] = In vivo imaging with laparotomy; design: species or system Balb/c nude mice; conditions: dissected after imaging
Text: The mice were anesthetized beforehand, and the gastrointestinal tract was then exposed by a single incision in the abdomen of the mice.

[3] = compared with P3^⋅+
Description: Animal experiments: male eight-week-old Balb/c nude mice were purchased from Guangzhou Yancheng Biotechnology Co. Ltd. The mice were adaptively housed for one week and fasted for 24 hours before gavage.
Subsequently, the in vivo fluorescence imaging was performed at room temperature by using the small animal imaging instrument Bruker MI SE 721. The imaging was performed every 10 min until 60 min, every 30 min until 120 min, and then every 60 min until 180 min. Two imaging steps were performed sequentially: 590 nm/700 nm, with exposure time being 60 s, and white light exposure time being 0.175 s. […] In the same conditions, quantitative analysis of fluorescence imaging was performed by using the instrument Bruker MI SE 721. The quantitative analysis of fluorescence was performed on the gastric signals in the mice at all the time points above. The mean value of fluorescence at three sites in the gastric region at 0 min was taken as I0, and the mean value of fluorescence at three sites in the gastric region at other time points was taken as I. A semi-quantitative analysis of the change of the gastric signals in the mice was performed by means of the fluorescence ratio (I/I0). In addition, the mice were euthanized at different time points, and the gastrointestinal tracts of the mice were dissected out for white light photography.

[4] = Description: 30 μL of DMSO stock solution (200 mM) of the compound P6 (4-(piperidine-1-methylene)-2,5-dimethyl-3-hydroxymethylene-^1H-pyrrole) was added to 2970 μL of the acidic buffer solution (pH=2.0-3.0).
After being mixed well, tests of the time-dependent ultraviolet-visible absorption spectrum and fluorescence spectrum were performed (2 h).

SMILES	H&E histology of major visceral organs (stomach, liver, spleen, kidney, lung, heart) ([1]; 2 hours after gavage of 1.5 mg in 70 μL water, compared with control group)	biocompatibility ([1]; generated in situ in the stomach, conclusion)	fluorescence of visceral organs other than the gastrointestinal tract [2]	gastrointestinal imaging effect [3]	time for conversion into the radical cation ([4]; acidic buffer solution pH=2.0-3.0, atmosphere of air)	conversion efficiency ([4]; compared with P3)	light emission ([4]; compared with P3)
Cc1cc(CO)c(C)n1-c1ccccc1 [P3, 2,5-dimethyl-3-hydroxymethylene-1-phenyl-^1H-pyrrole]	no obvious injury or inflammatory lesion	good biocompatibility	without any fluorescence signal	–	–	–	–
Cc1[nH]c(C)c(CN2CCCCC2)c1CO [P6, 4-(piperidine-1-methylene)-2,5-dimethyl-3-hydroxymethylene-^1H-pyrrole]	–	–	–	not as good as that of P3^⋅+	≤ 30 min	lower conversion efficiency	weaker light emission
